pIC50: −log10 of the molar value.
How the values were obtained:
BV2 microglia [1] = assay: LPS-induced NO production in BV2 microglial cell line (Griess reaction); format: cell-based; conditions: for LPS-induced NO production: BV2, Src kinase inhibitor PP2 (5 μM) or PDTC (FIG. 18)
Procedure: Since the production of NO (nitric oxide) is a strong marker of inflammatory response in microglia, the effect of PTP1B on LPS-induced NO production was investigated through the Griess reaction. The production of NO was measured using the amount of nitrite. Naive microglia or microglia overexpressing PTP1B were treated with LPS (originated from E. coli 055: B5; Sigma). FIG. 6 illustrates the result of treatment with a BV2 microglial cell line at the indicated dose of LPS. FIG. 7 illustrates the results of treating a BV2 microglial cell line with 100 ng LPS at the indicated time. 24 hours after incubation, 5 μl the cell culture media was mixed with Griess reagent with the same volume (0.1% naphthylethylenediamine dihydrochloride and 1% sulfanylamine in 5% phosphoric acid) in a 96-well microtiter plate. Absorbance was read at 540 nm and sodium nitrite was used for standard curve generation.
In addition, the level of LPS-induced NO production after BV2 treatment with Src kinase inhibitor PP2 (5 μM) or PDTC (Ammonium pyrrolidinedithiocarbamate, NFκB inhibitor) was identified to determine whether Src is associated with LPS-induced microglia activity. This is illustrated in FIG. 18.
Next, it was determined whether the PTP1B-mediated proinflammatory response was dependent on Src activity in microglia. […] NO levels were measured in the treated BV2 microglia and the results are illustrated in FIG. 19.

[2] = test system: microglia (Iba-1 positive cells); assay: Iba-1 positive activated microglia in brain of LPS-injected mice (brain inflammation model); format: in vivo, mouse; conditions: inhibitor intracerebrally, LPS 5 mg/kg i.p., 48 hours
Procedure: C57BL/6 mice were injected intracerebrally with vehicle (saline solution containing 0.5% DMSO and 5% propylene glycol) or the PTP inhibitor of Table 2 above (dilution in saline solution containing 5% propylene glycol). LPS (5 mg/kg) was intraperitoneally injected 30 minutes after injection. Mice were sacrificed and the brain was analyzed 48 hours after LPS injection.
The mouse model was divided into eight experimental groups; Group 1 treated with saline solution and 0.5% DMSO; Group 2 treated with LPS and 0.5% DMSO; Group 3 treated with LPS and PTP1B inhibitor; Group 4 treated with LPS and TC-PTP inhibitor; Group 5 treated with LPS and SHP2 inhibitor; Group 6 treated with LPS and MEG2 inhibitor; Group 7 treated with LPS and LYP inhibitor; and Group 8 treated with LPS and RPTPP inhibitor. The experimental design above is illustrated in FIG. 4A.
FIG. 4B illustrates the histochemical results of confirming whether the sacrificed mouse brain is morphologically changed by straining the antibody against Iba-1, a marker of microglia.
In addition, the brains were removed and sectioned, and the hippocampus, cortex and thalamus were stained with an antibody against Iba-1. The results of histochemical confirmation are illustrated in FIG. 4C. The results of graphical representation of the number of Iba-1 positive cells per mm^2 are illustrated in FIG. 4D.

HAPI cells [3] = assay: LPS-induced NO production in HAPI rat microglial cell line; format: cell-based; conditions: 10 μM iPTP1B 1 hour, LPS 100 ng/ml 24 hours (FIG. 11)
Text: NO levels were confirmed in the stimulated rat microglial cell line, HAPI cells.

Src = assay: Phosphorylation of Src at Y527 in brain of LPS-injected inflammatory mouse model; format: in vivo; conditions: LPS+iPTP1B or iPTP1B injected into the brain, after 24 hours (FIG. 20)
Procedure: In addition, in vivo experiments were carried out using an inflammatory mouse model injected with LPS to identify the effect of PTP1B on phosphorylation of Src at Y527 in vivo. […] At this time, total Src and beta-actin were used as a loading control group and Lnc2 was used as a marker of neuroinflammation. The results are illustrated in FIG. 20.

PTP1B = biological target: T1, PTP1B (Homo sapiens, UniProt P18031); conditions: statement without data; inhibitor obtained from Dr. Zhang group; cited from earlier work
T1 sequence (P18031 1-435): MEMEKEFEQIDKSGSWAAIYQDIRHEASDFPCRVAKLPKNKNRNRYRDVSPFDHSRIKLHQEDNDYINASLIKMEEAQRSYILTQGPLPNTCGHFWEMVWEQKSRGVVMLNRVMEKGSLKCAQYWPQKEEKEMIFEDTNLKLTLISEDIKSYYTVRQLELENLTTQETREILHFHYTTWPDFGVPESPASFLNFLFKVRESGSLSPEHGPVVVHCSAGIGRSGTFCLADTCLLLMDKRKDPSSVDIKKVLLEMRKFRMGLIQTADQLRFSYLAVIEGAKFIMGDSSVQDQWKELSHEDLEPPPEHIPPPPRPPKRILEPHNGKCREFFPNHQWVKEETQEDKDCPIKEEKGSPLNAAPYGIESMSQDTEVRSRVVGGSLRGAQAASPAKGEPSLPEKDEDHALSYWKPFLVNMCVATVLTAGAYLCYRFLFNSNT

HAPI cells [4] = assay: TNFα-induced NO production in HAPI rat microglial cell line; format: cell-based; conditions: 10 μM iPTP1B 1 hour, TNFα 100 ng/ml 24 hours (FIG. 12)
Text: NO levels were identified in the stimulated cells.

brain tissues = assay: Real-time PCR of TNFα and IL1β expression in brain tissue after LPS and iPTP1B injection; format: in vivo, mouse; conditions: real-time PCR 6 hours after injection of LPS (FIG. 23)
Procedure: The expression level of TNFα and IL1β genes, which are proinflammatory factors, was measured by real-time PCR 6 hours after the injection of LPS, and the results are illustrated in FIG. 23.

primary microglia = assay: LPS-induced NO production in mouse primary microglia; format: cell-based; conditions: 5 μM iPTP1B, LPS 50 ng/ml 24 hours (FIG. 10)
Text: NO levels were confirmed in the stimulated primary microglia.

BV2 microglia [5] = assay: RT-PCR of LPS-induced proinflammatory molecule mRNA in BV2 microglia; format: cell-based; conditions: BV2, LPS 100 ng/ml 6 hours, RT-PCR (FIGS. 13, 14)
Text: The results are illustrated in FIG. 13.

BV2 microglia [6] = assay: TNFα protein ELISA in BV2 microglial culture media; format: cell-based; conditions: BV2, LPS, 24-hour incubation, ELISA (FIG. 15)
Procedure: In addition, the level of TNFα protein in the BV2 microglial culture media treated with LPS as described above was confirmed by ELISA. […] After 24-hour incubation, the TNFα levels in the culture media were measured using a rat monoclonal anti-mouse TNFα antibody as the capture antibody and a goat biotinylated polyclonal anti-mouse TNFα antibody as the detection antibody. The measured levels of TNFα protein results are illustrated in FIG. 15.

N.S=C(S)N1CCCC1 [PDTC, Ammonium pyrrolidinedithiocarbamate]
LPS-induced NO production (BV2 microglia [1]): inhibited significantly

CC(C)(C)n1nc(-c2ccc(Cl)cc2)c2c(N)ncnc21 [PP2]
dose dependence of inhibition of LPS-induced NO production (BV2 microglia [1]; BV2, PP2 pretreatment (FIG. 18)): dose-dependent | LPS-induced NO production (BV2 microglia [1]): inhibited significantly | NO levels: effect on the anti-inflammatory effect of iPTP1B (BV2 microglia [1]; BV2 pretreated with PP2 or iPTP1B 1 hour, LPS 24 hours (FIG. 19)): eliminated the anti-inflammatory effect of iPTP1B

Cn1c(-c2cccc(NC(=O)CNC(=O)c3cc(Br)cc(I)c3)c2)c(I)c2cc(C(=O)O)c(O)cc21 [RPTPβ inhibitor, 2-(3-(2-(3-bromo-5-iodobenzamido)acetamido)phenyl)-6-hydroxy-3-iodo-1-methyl-1H-indole-5-carboxylic acid]
activation of LPS-induced microglia (Iba-1 positive cells) in the cortex [2]: decrease the activation of LPS-induced microglia | activation of LPS-induced microglia (Iba-1 positive cells) in the hippocampus [2]: decrease the activation of LPS-induced microglia

CCc1ccc(C(=O)NCCCC[C@H](NC(=O)[C@H](Cc2ccc(C(F)(F)P(=O)(O)O)cc2)NC(=O)[C@H](Cc2ccccc2)NC(=O)CO[C@@H]2C[C@@H](C)CC[C@@H]2C(C)C)C(N)=O)cc1 [TC-PTP inhibitor]
activation of LPS-induced microglia (Iba-1 positive cells) in the cortex [2]: decrease the activation of LPS-induced microglia

((4-((S)-3-(((S)-1-amino-3-(2-(4-hydroxy-3-methoxyphenyl)acetamido)-1-oxopropan-2-yl)amino)-5-(3-iodobenzamido)-1-oxopentan-2-yl)amino)-6-hydroxy-3-iodo-1-methyl-2-(3-(2-oxo-2-((4-thiophen-3-yl)phenyl)amino)acetamido)phenyl)-1H-indole-5-carboxlic acid [SHP2 inhibitor]
activation of LPS-induced microglia (Iba-1 positive cells) in the hippocampus [2]: decrease the activation of LPS-induced microglia

(S)-4-(((S)-1-(12-azanyl)-3-(4-(difluoro(phosphono)methyl)phenyl)-1-oxopropan-2-yl)amino)-3-((S)-3-(4-(difluoro(phosphono)methyl)phenyl)-2-pentadecanamidopropanamido)-4-oxobutanoic acid [iPTP1B]
level of LPS-induced NO (HAPI cells [3]): significantly decreased | phosphorylation of Src at Y527 in vivo (Src): increased phosphorylation of Src at Y527 | specificity for PTP1B (PTP1B): highly specific to PTP1B | TNFα-induced NO level (HAPI cells [4]): significantly decreased | expression of IL1β gene in brain (brain tissues): significantly weakened | expression of TNFα gene in brain (brain tissues): significantly weakened | activation of LPS-induced microglia (Iba-1 positive cells) in the cortex [2]: decrease the activation of LPS-induced microglia | activation of LPS-induced microglia (Iba-1 positive cells) in the hippocampus [2]: decrease the activation of LPS-induced microglia | level of LPS-induced NO (primary microglia): significantly decreased | LPS-induced IL1β mRNA expression (BV2 microglia [5]; 10 M iPTP1B): significantly inhibits | LPS-induced TNFα mRNA expression (BV2 microglia [5]; 10 M iPTP1B): significantly inhibits | LPS-induced iNOS mRNA expression (BV2 microglia [5]; 10 M iPTP1B): significantly inhibits | LPS-induced Cox2 mRNA expression (BV2 microglia [5]; iPTP1B): significantly inhibits | expression level of TNFα protein in the culture media (BV2 microglia [6]): significantly low | level of LPS-induced NO (BV2 microglia [1]; BV2, different concentrations of iPTP1B, LPS 100 ng/ml (FIG. 9)): dose-dependently decreased | NO production, treatment with inhibitor alone (basic level) (BV2 microglia [1]; BV2, iPTP1B alone without LPS): did not inhibit or increase NO production | pIC50 (BV2 microglia [1]; BV2, pretreated 1 hour, LPS 100 ng/ml, Griess method (FIG. 9), read-out: IC50 for level of LPS-induced NO): 4.99

From patent publication US20200384001A1, “COMPOSITION FOR PREVENTION OR TREATMENT OF NEUROINFLAMMATORY DISEASE, CONTAINING PROTEIN TYROSINE PHOSPHATASE” (KYUNGPOOK NATIONAL UNIVERSITY INDUSTRY - ACADEMIC …, priority 2015, published 2020)
